Our source for the EC50 and IC50 values is US11267825B2 (AICURIS GMBH & CO. KG, priority 2017, dated 2022).

Broadly, the EC50 is the concentration at which the effect is half-maximal. The IC50 is the concentration that gives 50% inhibition.

The test system of one experiment is HBV. The experiment in a line: Determination of HBV DNA from the supernatants of HepAD38 cells (anti-HBV activity). Format: cell-based, hepatitis B virus. The note with it: Hepatitis B virus, 144 h; HBV DNA in HepAD38 supernatant at day 6; read-out: Cell Activity (EC50). The gist of the method: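 HepAD38 cells (60,000/well) were treated with half-log compound dilutions in tetracycline-free medium to induce HBV production. On day 6, HBV DNA was purified from filtered supernatant and quantified by real-time PCR against plasmid standards. EC50 values came from non-linear regression of relative copy numbers, typically from three experiments in triplicate.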

Another experiment deals with HBV core protein (UniProt P03146). Format: biochemical. The settings on record: read-out: Assembly Activity (IC50); BODIPY-FL labelled core protein, assembly started with NaCl, read after 6 min. The gist of the method:
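Fluorescence-quenching assembly assay using E. coli-expressed core protein 1–149 plus Cys150, labelled with BODIPY-FL maleimide, at 1.0–2.0 μM in 50 mM HEPES pH 7.5, 0.5% DMSO. Assembly started with NaCl to […]; fluorescence (ex 477/em 525 nm) read after 6 min. EC50 by non-linear regression, 8-point 0.5-log dilutions.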

HBV core protein, sequence (P03146 whole entry, looked up): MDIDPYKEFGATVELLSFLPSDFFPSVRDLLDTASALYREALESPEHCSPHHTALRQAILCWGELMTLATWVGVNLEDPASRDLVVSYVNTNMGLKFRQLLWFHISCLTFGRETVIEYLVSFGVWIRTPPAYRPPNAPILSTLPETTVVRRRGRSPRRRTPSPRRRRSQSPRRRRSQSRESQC

With `Nc1nc2c(s1)CN(C(=O)c1cc3cc(Cl)c(Cl)cc3[nH]1)CC2` [Example 135, 5-(5,6-dichloro-1H-indole-2-carbonyl)-4H,5H,6H,7H-[1,3]thiazolo[5,4-c]pyridin-2-amine], in the experiment with HBV, the 50% effective concentration (EC50) is 1 to 10 µM. Moreover, the IC50 at HBV core protein was 5 to 10 µM.

Consider `Cc1nc2c(s1)CN(C(=O)c1cc3ccc(Cl)cc3[nH]1)CC2` [Example 162], for which, in the experiment with HBV, the EC50 is less than 1 µM. For the same compound, the IC50 at HBV core protein was less than 5 µM.

For the compound `Nc1nc2c(s1)CN(C(=O)c1cc3c([N+](=O)[O-])cccc3[nH]1)CC2` [Example 145, 5-(4-nitro-1H-indole-2-carbonyl)-4H,5H,6H,7H-[1,3]thiazolo[5,4-c]pyridin-2-amine], the concentration giving a half-maximal response (EC50) in the experiment with HBV was less than 1 µM. Further, on HBV core protein, the IC50 is less than 5 µM.

On to `CN(C)c1nc2c(s1)CN(C(=O)c1cc3c(F)ccc(F)c3[nH]1)CC2` [Example 133, 5-(4,7-difluoro-1H-indole-2-carbonyl)-N,N-dimethyl-4H,5H,6H,7H-[1,3]thiazolo[5,4-c]pyridin-2-amine], for which, in the experiment with HBV, the 50% effective concentration (EC50) fell in the range of 1 to 10 µM. For the same compound, the IC50 on HBV core protein was less than 100 µM.

For the compound `O=C(c1cc2c(F)ccc(F)c2[nH]1)N1CCc2nc(NCC3(CO)CC3)sc2C1` [Example 59, [1-({[5-(4,7-difluoro-1H-indole-2-carbonyl)-4H,5H,6H,7H-[1,3]thiazolo[5,4-c]pyridin-2-yl]amino}methyl)cyclopropyl]methanol], the concentration giving a half-maximal response (EC50) in the experiment on HBV was less than 1 µM. At HBV core protein, the concentration for half-maximal inhibition (IC50) was less than 5 µM.

Consider `CN(C)C1(CNc2nc3c(s2)CN(C(=O)c2cc4ccccc4[nH]2)CC3)CCC1` [Example 433, N-{[1-(dimethylamino)cyclobutyl]methyl}-5-(1H-indole-2-carbonyl)-4H,5H,6H,7H-[1,3]thiazolo[5,4-c]pyridin-2-amine], for which the 50% effective concentration (EC50) with HBV was less than 1 µM. On HBV core protein, the IC50 was less than 5 µM.

Regarding `O=C(c1cc2ccccc2[nH]1)N1CCc2nc(NC3CCC3)sc2C1` [Example 429, N-cyclobutyl-5-(1H-indole-2-carbonyl)-4H,5H,6H,7H-[1,3]thiazolo[5,4-c]pyridin-2-amine], the half-maximal effective concentration (EC50) in the experiment on HBV is less than 1 µM. Besides, on HBV core protein, the IC50 is less than 5 µM.

As to `Cc1cccc2[nH]c(C(=O)N3CCc4nc(NCC5(O)CCC5)sc4C3)cc12` [Example 370, 1-({[5-(4-methyl-1H-indole-2-carbonyl)-4H,5H,6H,7H-[1,3]thiazolo[5,4-c]pyridin-2-yl]amino}methyl)cyclobutan-1-ol], the concentration giving a half-maximal response (EC50) with HBV was less than 1 µM. Besides, the IC50 on HBV core protein was less than 5 µM.

With `O=C(c1cc2c(CO)cccc2[nH]1)N1CCc2nc(NCC3CCOC3)sc2C1` (stereo not drawn) [Example 245, [2-(2-{[(oxolan-3-yl)methyl]amino}-4H,5H,6H,7H-[1,3]thiazolo[5,4-c]pyridine-5-carbonyl)-1H-indol-4-yl]methanol], the EC50 in the experiment on HBV was less than 1 µM. Further, the IC50 at HBV core protein was less than 100 µM.

For the compound `O=C(c1cc2c(Cl)c(F)ccc2[nH]1)N1CCc2nc(NCC3(CO)CC3)sc2C1` [Example 251, [1-({[5-(4-chloro-5-fluoro-1H-indole-2-carbonyl)-4H,5H,6H,7H-[1,3]thiazolo[5,4-c]pyridin-2-yl]amino}methyl)cyclopropyl]methanol], the EC50 in the experiment with HBV was less than 1 µM. Further, the IC50 at HBV core protein is less than 5 µM.

With `O=C(c1cc2ccccc2[nH]1)N1CCc2nc(NCCc3c[nH]cn3)sc2C1` [Example 286, N-[2-(1H-imidazol-4-yl)ethyl]-5-(1H-indole-2-carbonyl)-4H,5H,6H,7H-[1,3]thiazolo[5,4-c]pyridin-2-amine], the EC50 in the experiment on HBV is less than 1 µM. For the same compound, on HBV core protein, the IC50 was less than 5 µM.

With `CN1CCC(C(=O)Nc2nc3c(s2)CN(C(=O)c2cc4ccccc4[nH]2)CC3)CC1` [Example 409, N-[5-(1H-indole-2-carbonyl)-4H,5H,6H,7H-[1,3]thiazolo[5,4-c]pyridin-2-yl]-1-methylpiperidine-4-carboxamide], in the experiment with HBV, the concentration for a half-maximal effect (EC50) was less than 1 µM. In addition, the IC50 on HBV core protein is less than 5 µM.

On to `CC(=O)N1CCOC(CNc2nc3c(s2)CN(C(=O)c2cc4ccccc4[nH]2)CC3)C1` (stereo not drawn) [Example 242, 1-[2-({[5-(1H-indole-2-carbonyl)-4H,5H,6H,7H-[1,3]thiazolo[5,4-c]pyridin-2-yl]amino}methyl)morpholin-4-yl]ethan-1-one], for which the EC50 in the experiment on HBV is less than 1 µM. Further, on HBV core protein, the concentration for half-maximal inhibition (IC50) lay within 5 to 10 µM.

For `Nc1nc2c(s1)CN(C(=O)c1cc3cccc(OC(F)(F)F)c3[nH]1)CC2` [Example 174, 5-(7-(trifluoromethoxy)-1H-indole-2-carbonyl)-4H,5H,6H,7H-[1,3]thiazolo[5,4-c]pyridin-2-amine], the EC50 in the experiment on HBV is 1 to 10 µM. The IC50 on HBV core protein was less than 5 µM.

In the case of `Cc1nc2c(s1)CN(C(=O)c1cc3cccc(OC(F)F)c3[nH]1)CC2` [Example 182, 7-(difluoromethoxy)-2-{2-methyl-4H,5H,6H,7H-[1,3]thiazolo[5,4-c]pyridine-5-carbonyl}-1H-indole], the EC50 with HBV is 1 to 10 µM. In addition, the half-inhibitory concentration (IC50) at HBV core protein was less than 100 µM.

Take `CC(C)(C)C(=O)Nc1nc2c(s1)CN(C(=O)c1cc3ccccc3[nH]1)CC2` [Example 275, N-[5-(1H-indole-2-carbonyl)-4H,5H,6H,7H-[1,3]thiazolo[5,4-c]pyridin-2-yl]-2,2-dimethylpropanamide]: the EC50 in the experiment with HBV is less than 1 µM. Further, on HBV core protein, the IC50 lay in the range of 5 to 10 µM.

For `O=C(CNc1nc2c(s1)CN(C(=O)c1cc3ccccc3[nH]1)CC2)N1CCCCC1` [Example 233, 2-{[5-(1H-indole-2-carbonyl)-4H,5H,6H,7H-[1,3]thiazolo[5,4-c]pyridin-2-yl]amino}-1-(piperidin-1-yl)ethan-1-one], in the experiment on HBV, the EC50 lay in the range of 1 to 10 µM. For the same compound, the 50% inhibitory concentration (IC50) at HBV core protein was less than 100 µM.

Take `Cc1cc(C)c2cc(C(=O)N3CCc4nc(N)sc4C3)[nH]c2c1` [Example 138, 5-(4,6-dimethyl-1H-indole-2-carbonyl)-4H,5H,6H,7H-[1,3]thiazolo[5,4-c]pyridin-2-amine]: the 50% effective concentration (EC50) in the experiment with HBV lay in the range of 1 to 10 µM. Also, on HBV core protein, the IC50 is less than 5 µM.

Take `O=C(c1cc2c(F)c(F)c(F)cc2[nH]1)N1CCc2nc(NCC3CCOC3)sc2C1` (stereo not drawn) [Example 105, 5-(4,5,6-trifluoro-1H-indole-2-carbonyl)-N-[(oxolan-3-yl)methyl]-4H,5H,6H,7H-[1,3]thiazolo[5,4-c]pyridin-2-amine]: the EC50 in the experiment on HBV was less than 1 µM. The IC50 on HBV core protein is less than 5 µM.

Take `Nc1nc2c(s1)CN(C(=O)c1cc3c(F)c(F)c(F)cc3[nH]1)CC2` [Example 78, 5-(4,5,6-trifluoro-1H-indole-2-carbonyl)-4H,5H,6H,7H-[1,3]thiazolo[5,4-c]pyridin-2-amine]: the EC50 with HBV was less than 1 µM. For the same compound, the half-maximal inhibitory concentration (IC50) at HBV core protein was less than 5 µM.

Take `N#Cc1cc(F)cc2[nH]c(C(=O)N3CCc4nc(N)sc4C3)cc12` [Example 77, 2-{2-amino-4H,5H,6H,7H-[1,3]thiazolo[5,4-c]pyridine-5-carbonyl}-6-fluoro-1H-indole-4-carbonitrile]: the EC50 in the experiment on HBV is less than 1 µM. For the same compound, on HBV core protein, the IC50 was less than 5 µM.

`O=C(c1cc2ccc(Br)cc2[nH]1)N1CCc2nc(NCC3CCOC3)sc2C1` (stereo not drawn) [Example 113, 5-(6-bromo-1H-indole-2-carbonyl)-N-[(oxolan-3-yl)methyl]-4H,5H,6H,7H-[1,3]thiazolo[5,4-c]pyridin-2-amine]: in the experiment with HBV, the 50% effective concentration (EC50) is less than 1 µM. For the same compound, the IC50 on HBV core protein is less than 5 µM.

In the case of `CC(C)(C)OC(=O)N1CCC(O)(CNc2nc3c(s2)CN(C(=O)c2cc4ccccc4[nH]2)CC3)CC1` [Example 219, tert-butyl 4-hydroxy-4-({[5-(1H-indole-2-carbonyl)-4H,5H,6H,7H-[1,3]thiazolo[5,4-c]pyridin-2-yl]amino}methyl)piperidine-1-carboxylate], in the experiment on HBV, the concentration for a half-maximal effect (EC50) was less than 1 µM. Also, the IC50 at HBV core protein is 5 to 10 µM.

In the case of `N#Cc1cc(F)cc2[nH]c(C(=O)N3CCc4nc(NCC5CCOC5)sc4C3)cc12` (stereo not drawn) [Example 103, 5-(4-cyano-6-fluoro-1H-indole-2-carbonyl)-N-[(oxolan-3-yl)methyl]-4H,5H,6H,7H-[1,3]thiazolo[5,4-c]pyridin-2-amine], in the experiment with HBV, the EC50 is less than 1 µM. Also, the IC50 on HBV core protein is 5 to 10 µM.

Regarding `Nc1nc2c(s1)CN(C(=O)c1cc3cccc(Cl)c3[nH]1)CC2` [Example 154, 5-(7-chloro-1H-indole-2-carbonyl)-4H,5H,6H,7H-[1,3]thiazolo[5,4-c]pyridin-2-amine], the EC50 with HBV is less than 1 µM. Also, the IC50 on HBV core protein is less than 5 µM.

On to `C=Cc1cccc2[nH]c(C(=O)N3CCc4nc(N)sc4C3)cc12` [Example 13, 5-(4-ethenyl-1H-indole-2-carbonyl)-4H,5H,6H,7H-[1,3]thiazolo[5,4-c]pyridin-2-amine], for which, in the experiment with HBV, the EC50 fell in the range of 1 to 10 µM. Further, on HBV core protein, the half-inhibitory concentration (IC50) is 5 to 10 µM.

Turning to `Cc1cc(C)c2[nH]c(C(=O)N3CCc4nc(N)sc4C3)cc2c1` [Example 137, 5-(5,7-dimethyl-1H-indole-2-carbonyl)-4H,5H,6H,7H-[1,3]thiazolo[5,4-c]pyridin-2-amine], the EC50 with HBV is less than 100 µM. For the same compound, the IC50 on HBV core protein is less than 100 µM.

As to `Nc1nc2c(s1)CN(C(=O)c1cc3c(Cl)ccc(F)c3[nH]1)CC2` [Example 85, 5-(4-chloro-7-fluoro-1H-indole-2-carbonyl)-4H,5H,6H,7H-[1,3]thiazolo[5,4-c]pyridin-2-amine], the EC50 in the experiment on HBV was less than 1 µM. The 50% inhibitory concentration (IC50) at HBV core protein was less than 5 µM.

With `CC1(C(=O)Nc2nc3c(s2)CN(C(=O)c2cc4ccccc4[nH]2)CC3)CC1` [Example 274, N-[5-(1H-indole-2-carbonyl)-4H,5H,6H,7H-[1,3]thiazolo[5,4-c]pyridin-2-yl]-1-methylcyclopropane-1-carboxamide], the EC50 in the experiment on HBV was less than 1 µM. Moreover, the IC50 at HBV core protein was less than 5 µM.

Consider `Nc1nc2c(s1)CN(C(=O)c1cc3c(C4CC4)cccc3[nH]1)CC2` [Example 82, 5-(4-cyclopropyl-1H-indole-2-carbonyl)-4H,5H,6H,7H-[1,3]thiazolo[5,4-c]pyridin-2-amine], for which the concentration giving a half-maximal response (EC50) with HBV lay in the range of 1 to 10 µM. Further, the IC50 at HBV core protein was 5 to 10 µM.
